“And” between values parts separate entries of the source, which are not always exact repeats. Identical values can stand only once. One block for each molecule: values may come before it.
System: 242566-281-R-J2-PDC complex spheroid viability
Assay: Anticancer human tumor 242566-281-R-J2-PDC patient-derived pancreatic carcinoma cell line growth inhibition [CLK]
Conditions: for IC50: curve of first compound; for viability, T/C: stronger effect = lower value
Outline: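 Multi-cell-type spheroids combined patient-derived tumor cells with HUVEC endothelial cells and human mesenchymal stem cells. Paired agents were dosed in half-log steps down from about clinical Cmax, or from 10 microM where Cmax was unknown.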

[1] = second compound 0.0316 µM, first compound 0.0316 µM
[2] = second compound 0.0316 µM, first compound 0.1 µM
[3] = second compound 0.0316 µM, first compound 0.316 µM
[4] = second compound 0.0316 µM, first compound 1 µM
[5] = second compound 0.0316 µM, first compound 3.16 µM
[6] = second compound 0.0316 µM, first compound 10 µM
[7] = second compound 0.1 µM, first compound 0.0316 µM
[8] = second compound 0.1 µM, first compound 0.1 µM
[9] = second compound 0.1 µM, first compound 0.316 µM
[10] = second compound 0.1 µM, first compound 1 µM
[11] = second compound 0.1 µM, first compound 3.16 µM
[12] = second compound 0.1 µM, first compound 10 µM
[13] = second compound 0.316 µM, first compound 0.0316 µM
[14] = second compound 0.316 µM, first compound 0.1 µM
[15] = second compound 0.316 µM, first compound 0.316 µM
[16] = second compound 0.316 µM, first compound 1 µM
[17] = second compound 0.316 µM, first compound 3.16 µM
[18] = second compound 0.316 µM, first compound 10 µM
[19] = second compound 1 µM, first compound 0.0316 µM
[20] = second compound 1 µM, first compound 0.1 µM
[21] = second compound 1 µM, first compound 0.316 µM
[22] = second compound 1 µM, first compound 1 µM
[23] = second compound 1 µM, first compound 3.16 µM
[24] = second compound 1 µM, first compound 10 µM
[25] = second compound 3.16 µM, first compound 0.0316 µM
[26] = second compound 3.16 µM, first compound 0.1 µM
[27] = second compound 3.16 µM, first compound 0.316 µM
[28] = second compound 3.16 µM, first compound 1 µM
[29] = second compound 3.16 µM, first compound 3.16 µM
[30] = second compound 3.16 µM, first compound 10 µM
[31] = second compound 10 µM, first compound 0.0316 µM
[32] = second compound 10 µM, first compound 0.1 µM
[33] = second compound 10 µM, first compound 0.316 µM
[34] = second compound 10 µM, first compound 1 µM
[35] = second compound 10 µM, first compound 3.16 µM
[36] = second compound 10 µM, first compound 10 µM
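Also: spheroids exposed to compounds for 7 days before readout.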
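For viability, T/C in this document: 100% = DMSO vehicle control wells.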

SMILES: COc1cccc2c1C(=O)c1c(O)c3c(c(O)c1C2=O)CC(O)(C(=O)CO)CC3OC1CC(N)C(O)C(C)O1 (stereo not given) + CN1CCN(c2cc(C(=O)Nc3cc4cc(-c5cnn(C)c5)ccc4cn3)ccn2)CC1
- IC50 (second compound 0.0316 µM): 55 nM
- IC50 (second compound 0.1 µM): 50 nM
- IC50 (second compound 0.316 µM): < 31.6 nM
- IC50 (second compound 1 µM): < 31.6 nM
- IC50 (second compound 3.16 µM): < 31.6 nM
- IC50 (second compound 10 µM): < 31.6 nM
- viability, T/C [1]: 67%
- viability, T/C [2]: 31.7%
- viability, T/C [3]: 8.7%
- viability, T/C [4]: 4.2%
- viability, T/C [5]: 1.44%
- viability, T/C [6]: 2.53%
- viability, T/C [7]: 66.5%
- viability, T/C [8]: 25.1%
- viability, T/C [9]: 5.6%
- viability, T/C [10]: 2.26%
- viability, T/C [11]: 1.22%
- viability, T/C [12]: 1.37%
- viability, T/C [13]: 26.1%
- viability, T/C [14]: 7.56%
- viability, T/C [15]: 1.25%
- viability, T/C [16]: 1.1%
- viability, T/C [17]: 1.58%
- viability, T/C [18]: 1.58%
- viability, T/C [19]: 4.67%
- viability, T/C [20]: 4.62%
- viability, T/C [21]: 2.83%
- viability, T/C [22]: 3.28%
- viability, T/C [23]: 2.48%
- viability, T/C [24]: 2.27%
- viability, T/C [25]: 6.53%
- viability, T/C [26]: 5.78%
- viability, T/C [27]: 5.19%
- viability, T/C [28]: 3.29%
- viability, T/C [29]: 2.58%
- viability, T/C [30]: 1.42%
- viability, T/C [31]: 1.13%
- viability, T/C [32]: 1.22%
- viability, T/C [33]: 0.74%
- viability, T/C [34]: 0.66%
- viability, T/C [35]: 0.57%
- viability, T/C [36]: 0.17%

SMILES: C#Cc1c(F)ccc2cc(O)cc(-c3ncc4c(N5CC6CCC(C5)N6)nc(OCC56CCCN5CC(F)C6)nc4c3F)c12 (stereo not given)
- viability, T/C (compound 0.0316 µM): 104% and 67.3%
- viability, T/C (compound 0.1 µM): 90.1% and 49.6%
- viability, T/C (compound 0.316 µM): 76.2% and 43.3%
- viability, T/C (compound 1 µM): 58.3% and 26.4%
- viability, T/C (compound 3.16 µM): 48.6% and 26%
- viability, T/C (compound 10 µM): 40% and 21.3%

- IC50 (second compound 0.0316 µM): < 31.6 nM
- IC50 (second compound 0.1 µM): > 10000 nM
- IC50 (second compound 0.316 µM): > 10000 nM
- IC50 (second compound 1 µM): > 10000 nM
- IC50 (second compound 3.16 µM): < 31.6 nM
- IC50 (second compound 10 µM): < 31.6 nM
SMILES: CC(=O)O[C@H]1C(=O)[C@@]2(C)[C@H]([C@H](OC(=O)c3ccccc3)[C@]3(O)C[C@H](OC(=O)[C@H](O)[C@@H](NC(=O)c4ccccc4)c4ccccc4)C(C)=C1C3(C)C)[C@]1(OC(C)=O)CO[C@@H]1C[C@@H]2O + CNC(=O)c1ccc(Nc2nc(OC3CCCC3)c3c(-c4ccc5nc(C)oc5c4)c[nH]c3n2)c(OC)c1
- viability, T/C [1]: 61%
- viability, T/C [2]: 47.7%
- viability, T/C [3]: 42%
- viability, T/C [4]: 41.7%
- viability, T/C [5]: 46%
- viability, T/C [6]: 72.3%
- viability, T/C [7]: 84.7%
- viability, T/C [8]: 66.2%
- viability, T/C [9]: 53.2%
- viability, T/C [10]: 61.9%
- viability, T/C [11]: 70.7%
- viability, T/C [12]: 108%
- viability, T/C [13]: 91.7%
- viability, T/C [14]: 95%
- viability, T/C [15]: 86.2%
- viability, T/C [16]: 92%
- viability, T/C [17]: 115%
- viability, T/C [18]: 94.6%
- viability, T/C [19]: 62.3%
- viability, T/C [20]: 56.6%
- viability, T/C [21]: 52.2%
- viability, T/C [22]: 51.6%
- viability, T/C [23]: 50.7%
- viability, T/C [24]: 56.2%
- viability, T/C [25]: 51%
- viability, T/C [26]: 40.9%
- viability, T/C [27]: 43.1%
- viability, T/C [28]: 45.2%
- viability, T/C [29]: 46.3%
- viability, T/C [30]: 43%
- viability, T/C [31]: 43%
- viability, T/C [32]: 36.4%
- viability, T/C [33]: 43.7%
- viability, T/C [34]: 46.2%
- viability, T/C [35]: 43.4%
- viability, T/C [36]: 44.8%
